# Positions count from the first letter of the chain named.
# How the values were obtained:
# Assay type in all cases: biochemical, murine
# [1] = target: T1, mCOX-2^V349A (Mus musculus, UniProt Q05769, V335A); assay: Time-dependent IC50 COX inhibition assay
# T1 construct: made in house; host or cells: Sf9 insect cells (baculovirus, pVL1393)
# T1 sequence (Q05769 18-604 V335A): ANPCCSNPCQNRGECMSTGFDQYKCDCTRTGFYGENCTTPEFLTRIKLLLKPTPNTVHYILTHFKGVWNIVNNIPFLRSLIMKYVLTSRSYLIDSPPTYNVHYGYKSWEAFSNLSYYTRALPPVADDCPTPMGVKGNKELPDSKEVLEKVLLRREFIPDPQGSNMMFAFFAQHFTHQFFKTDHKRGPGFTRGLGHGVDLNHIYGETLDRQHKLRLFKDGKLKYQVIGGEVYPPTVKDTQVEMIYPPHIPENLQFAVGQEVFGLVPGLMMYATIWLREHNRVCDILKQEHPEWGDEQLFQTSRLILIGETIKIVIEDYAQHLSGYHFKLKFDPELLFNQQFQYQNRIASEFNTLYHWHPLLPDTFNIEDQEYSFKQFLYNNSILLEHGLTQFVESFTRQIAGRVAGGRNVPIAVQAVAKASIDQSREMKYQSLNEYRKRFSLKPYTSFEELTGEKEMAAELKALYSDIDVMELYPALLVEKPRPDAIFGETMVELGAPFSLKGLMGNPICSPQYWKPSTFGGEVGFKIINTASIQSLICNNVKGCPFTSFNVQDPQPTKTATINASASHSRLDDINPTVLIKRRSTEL
# Method: These mutated genes were used to assemble baculoviral constructs for large-scale expression in Sf9 cells. Purification of the expressed COX-2 protein was performed through traditional cellular fractionation and classical column chromatography. Activity or inhibition assays were performed in 100 mM Tris-HCl buffer containing 500 μM phenol, with hematin-reconstituted protein. Quantification of cyclooxygenase activity was performed by monitoring substrate (arachidonate or oxygen) consumption in a thermostatted cuvette at 37° C. using a polarographic electrode with a 5300 oxygen monitor (Yellow Springs Instrument Co. Inc., Yellow Springs, Ohio, United States of America). All inhibitors and substrates were solubilized in dimethyl sulfoxide (DMSO). Activity or inhibition assays were performed in 100 mM Tris-HCl buffer containing 500 μM phenol, with hematin-reconstituted protein. Maximal reaction velocity data were obtained from the linear portion of the oxygen uptake curves, and the data were analyzed by nonlinear regression with Prism 4.0 (GraphPad Software, San Diego, Calif., United States of America).
# Time-dependent inhibition reactions were performed by pre-incubating the inhibitor and enzyme for 17 minutes at 25° C., followed by 3 minutes at 37° C. prior to the addition of 50 μM [1-^14C]-AA for 30 seconds at 37° C. Assays were terminated and analyzed for substrate consumption by thin layer chromatography as previously described (Kalgutkar et al., 2000a).
# Maximal reaction velocity data were obtained from the linear portion of the oxygen uptake curves, and the data were analyzed by nonlinear regression. Instantaneous inhibition assays were performed with substrate and inhibitor added prior the initiation of the reaction by addition of protein. Time-dependent screening assays were performed by pre-incubating the inhibitor and enzyme for 17 minutes at 25° C., followed by 3 minutes at 37° C. prior to the addition of 50 μM [1-^14C]-arachidonic acid (AA) for 30 seconds at 37° C.
# (§1) Assays were terminated and analyzed for substrate consumption by thin layer chromatography. […] Time-dependent COX inhibition reactions were pre-incubated at 37° C. for varying lengths of time (0-30 minutes) with various concentrations of inhibitor. All reactions were performed with [1-^14C]-AA for 30 seconds at 37° C.; reactions were terminated and analyzed as described above.
# The COX reaction was allowed to proceed for 30 seconds before termination.
# [2] = target: T2, mCOX-2^V349L (Mus musculus, UniProt Q05769, V335L); assay: Kinetics of time-dependent COX inhibition
# T2 construct: made in house; host or cells: Sf9 insect cells (baculovirus, pVL1393)
# T2 sequence (Q05769 18-604 V335L): T1 sequence (Q05769 18-604 V335A) with A318L
# Method: as §1
# (§2) To ensure that pseudo-first-order conditions were maintained, the enzymatic oxygenation reactions were terminated after 30 seconds to prevent extensive consumption of substrate. The decline of substrate conversion at different INDO concentrations was plotted against the pre-incubation times and fit to a single exponential decay with a plateau to determine kobs (FIG. 2).
# (§3) The rate constant k2 represents the limiting forward rate constant for functionally irreversible inhibition, and KI corresponds to the inhibitor concentration that yields a rate equal to half of the limiting rate.
# [3] = target: T3, wild type mCOX-2 (Mus musculus, UniProt Q05769); assay: Kinetics of time-dependent COX inhibition
# T3 construct: made in house; host or cells: Sf9 insect cells (baculovirus, pVL1393)
# T3 sequence (Q05769 18-604): T1 sequence (Q05769 18-604 V335A) with A318V
# Method: as §1, §2, §3
structure (smiles),measurement,setting,value
"COc1ccc2c(c1)c(CC(=O)O)cn2C(=O)c1ccc(Cl)cc1 [DM-INDO, 2-Des-methylindomethacin]",inhibition in the time-dependent IC50 assay,[1],less than 20%
same,IC50,"[1]; 20 min pre-incubation, then 50 μM AA for 30 s",> 16 µM
same,remaining activity approached (plateau) in time-dependent inhibition curves,[2]; V349L,about 30%
same,higher concentrations required for V349L to achieve similar inhibition as wild type mCOX-2,[2]; V349L versus wild type mCOX-2,~10 fold
same,k−2 (y-intercept of linear regression analysis),"[2]; V349L, graph did not plateau, linear regression",0.0025 ± 0.0003 s⁻¹
same,off-rate constant slower than the on-rate,[3],14 fold
same,remaining activity approached (plateau) in time-dependent inhibition curves,[3],about 30%
same,on-rate constant (k2) faster than for INDO,[3]; DM-INDO versus INDO,14 fold
same,Ki,[3]; time-dependent inhibition,26 ± 7 µM
same,k2,[3]; time-dependent inhibition,0.80 ± 0.03 s⁻¹
same,k−2,[3]; time-dependent inhibition,0.05 ± 0.02 s⁻¹

# From patent US8168656B2, “Indoleacetic acid and indenacetic acid derivatives as therapeutic agents with reduced gastrointestinal toxicity” (Vanderbilt University, priority 2009, dated 2012)
